Source: US6251949A, “Oxime derivatives, hydrazone derivatives and use thereof” (Shionogi & Co., Ltd., priority 1996, dated 2001)

How the values were obtained:
Type in all cases: in vivo
Pyricularia oryzae = settings: rice seedling, 6 days after inoculation
tachykinin receptor [1] = biological target: T1, tachykinin receptor (Cavia porcellus, UniProt P30547); experiment: Tachykinin receptor antagonistic effect: capsaicin-induced increase in blood vessel permeability, trachea; settings: guinea pig, iv, read-out: ED50 Guinea pig trachea
T1 construct: from tissue; host or cells: guinea pig trachea, in vivo
Description: (§1) The tachykinin receptor antagonistic effect of a compound according to the present invention was investigated by the method described below.
(§2) [Effect of compound on capsaicin-induced increase in blood vessel permeability]
(§3) 5 Minutes after giving Evans Blue (30 mg/kg, i.v.) to a guinea pig anesthetized with pentobarbital (30 mg/kg, i.p.), a test compound dissolved in […] was injected intravenously. After further 5 minutes, capsaicin (0.15 mg/kg, i.v.) was given to induce the plasma transudation. 5 Minutes after administration of capsaicin, the guinea pig was sacrificed to isolate the trachea and the urinary bladder. After extraction with formamide for 24 hours, the dye content in each tissue was quantified on the basis of the absorbance at 620 nm, and the amount of the dye transudated into the tissue was calculated from the calibration curve.
(§4) By the method described above, the amount of the compound required to obtain 50% suppression (ED50) was determined and represented in units (mg/kg).

tachykinin receptor [2] = biological target: T1, tachykinin receptor; experiment: Tachykinin receptor antagonistic effect: capsaicin-induced increase in blood vessel permeability, urinary bladder; settings: guinea pig, iv, read-out: ED50 Guinea pig urinary bladder
Description: as §1, §2, §3, §4

T1 sequence (P30547 whole entry): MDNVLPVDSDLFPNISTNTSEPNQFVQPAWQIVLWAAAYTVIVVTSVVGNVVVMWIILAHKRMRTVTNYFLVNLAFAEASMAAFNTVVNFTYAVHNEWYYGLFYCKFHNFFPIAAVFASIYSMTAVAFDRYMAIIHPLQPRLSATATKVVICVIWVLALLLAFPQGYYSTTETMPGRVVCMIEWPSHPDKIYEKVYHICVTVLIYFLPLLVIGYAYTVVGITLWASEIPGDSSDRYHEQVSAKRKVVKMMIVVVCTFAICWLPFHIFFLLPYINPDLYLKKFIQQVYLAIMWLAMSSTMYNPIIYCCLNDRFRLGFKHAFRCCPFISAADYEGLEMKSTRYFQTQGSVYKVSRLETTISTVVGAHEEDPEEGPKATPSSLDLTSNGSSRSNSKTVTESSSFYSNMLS

Compound | Controlling effect on rice blight (Pyricularia oryzae) by foliage application at 500 ppm (% control) (Pyricularia oryzae) | ED50 (tachykinin receptor [1]) | ED50 (tachykinin receptor [2])
O=C1OCc2c(Cl)c(Cl)c(Cl)c(Cl)c21 [Fthalide, reference compound] | 97% |  | 
CON=C(C)C(=NOCc1ccccc1Cl)C(=O)N1CCC(NC(C)=O)CC1 [Compound M-11] |  | 0.024 mg/kg | 
C=CCON=C(C)C(=NOCc1ccc(OC)cc1Cl)C(=O)N(C)C [Compound C-95] | 90% |  | 
C=CCON=C(C)C(=NOCc1ccc(Cl)c(Cl)c1)C(=O)N(C)C [Compound C-96] | 90% |  | 
CON=C(C(=O)N1CCOCC1)C(C)=NOCc1ccccc1 [Compound W-176] |  | 0.145 mg/kg | 0.075 mg/kg
C=CCON=C(C)C(=NOCc1ccc(Cl)c(Cl)c1)C(=O)N1CCOCC1 [Compound W-96] |  | 0.04 mg/kg | 
C=CCON=C(C(=O)N1CCN(C)CC1)C(C)=NOCc1ccccc1 [b-180] |  | 0.054 mg/kg | 0.087 mg/kg
CON=C(C(=O)N1CCN(C)CC1)C(C)=NOCc1ccccc1Cl [Compound b-251] |  | 0.017 mg/kg | 0.017 mg/kg
CON=C(C)C(=NOCc1ccccc1Cl)C(=O)N(C)C [Compound C-11] | 90% |  | 
C=CCON=C(C)C(=NOCc1ccccc1Cl)C(=O)N(C)C [Compound C-86] | 90% |  | 
C=CCON=C(C)C(=NOCc1ccccc1Cl)C(=O)N1CCC(NC(C)=O)CC1 [Compound M-86] |  | 0.085 mg/kg | 
